We go through eleven compounds from US20250064864A1, “MICROBIAL STRAIN OF LACHNOSPIRACEAE, DRUG FOR PREVENTING OR TREATING TUMORS AND USE” (MOON (GUANGZHOU) BIOTECH CO., LTD., priority 2021, published 2025).

Like-named read-outs stand apart in the source and are kept apart here.

One test concerns MNH 46686 strain. Nature of the test: Antibiotic susceptibility test by disk diffusion method. The test is classed as cell-based, Lachnospiraceae sp. MNH 46686. The conditions noted are these: for Diameter of inhibition zone: against MNH 46686 strain. The source says: 2.4 Antibiotic Susceptibility Test of MNH 46686 Strain by Disk Diffusion Method
Background: In agar diffusion tests the substance spreads into inoculated agar from a disc or well.

For the next test, the system named is IFNβ. Briefly: THP-1 IFNβ-promoter reporter (luciferase) assay. It is filed as cell-based. The conditions noted are these: 20 μM, 40 μM and 80 μM, 24 h. The text has this: Interferon (IFN) […] are a group of cytokines secreted by host cells, which can regulate immune responses. Interferons are produced under stimulation by viruses, bacterial endotoxins, synthetic double-stranded RNAs, etc. Macrophages, lymphocytes, somatic cells, etc., in the human body can all produce interferons, in which IFNβ belongs to type I interferons and can promote the activities of NK cells, macrophages, and T lymphocytes. […] Furthermore, the MNH 46686 strain of the present disclosure has been experimentally verified to be able to promote the expression of IFNβ, thereby exerting anti-viral, anti-tumor, immunomodulatory, and other effects. In order to verify whether MNH 46686 can promote the expression of IFNβ, the constructed THP-1 cells (a cell line established by Moon Co.) carrying the IFNβ-promoter reporter were used in this study to evaluate the effect of MNH 46686 on the transcriptional activity of IFNβ. […]
The THP-1-IFNβ-promoter reporter cells were inoculated in a 96-well plate, with 1×10^5 cells per well. […] The chemiluminescence values were detected with a microplate reader. The relative luminescence values were normalized to the untreated group and compared with the relative luminescence readings of the High group to evaluate the effect of MNH 46686 on the transcriptional activity of IFNβ.

In the case of `CC1(C)S[C@@H]2[C@H](NC(=O)[C@H](N)c3ccccc3)C(=O)N2[C@H]1C(=O)O` [Ampicillin], the results for the “Note (susceptibility of MNH 46686 strain to the antibiotic)” value (from here on “Note”) in the test on MNH 46686 strain and with MNH 46686 strain (listed as ampicillin) were “Resistant” and “resistant”, respectively. Besides, the “Diameter of inhibition zone” value in the test on MNH 46686 strain is 0.00 mm.

`CO/N=C(\C(=O)N[C@@H]1C(=O)N2C(C(=O)O)=C(CSc3nc(=O)c(=O)[nH]n3C)CS[C@H]12)c1csc(N)n1` [Ceftriaxone]: in the test on MNH 46686 strain, the “Note” value is reported as “Resistant” and the “Diameter of inhibition zone” value was 0.00 mm. Besides, in the test with MNH 46686 strain (listed as ceftriaxone), the “Note” value is reported as “resistant”.

Regarding `O=C(N[C@H](CO)[C@H](O)c1ccc([N+](=O)[O-])cc1)C(Cl)Cl` [Chloramphenicol], the “Note” value in the test with MNH 46686 strain is on record as “Sensitive”; in the test with MNH 46686 strain (listed as chloramphenicol), “sensitive”. For the same compound, the “Diameter of inhibition zone” value in the test on MNH 46686 strain is listed as 18.45 mm.

With `O=C(O)c1cn(C2CC2)c2cc(N3CCNCC3)c(F)cc2c1=O` [Ciprofloxacin], the results for the “Note” value with MNH 46686 strain and in the test on MNH 46686 strain (listed as ciprofloxacin) were “Resistant” and “resistant”, respectively. Besides, the “Diameter of inhibition zone” value in the test on MNH 46686 strain came out at 0.00 mm.

With `CC[C@H]1OC(=O)[C@H](C)[C@@H](O[C@H]2C[C@@](C)(OC)[C@@H](O)[C@H](C)O2)[C@H](C)[C@@H](O[C@@H]2O[C@H](C)C[C@H](N(C)C)[C@H]2O)[C@](C)(O)C[C@@H](C)C(=O)[C@H](C)[C@@H](O)[C@]1(C)O` [Erythromycin], in the test with MNH 46686 strain, the “Note” value is reported as “Resistant” and the “Diameter of inhibition zone” value is listed as 0.00 mm. For the same compound, in the test on MNH 46686 strain (listed as erythromycin), the “Note” value is given as “resistant”.

As for `CCC[C@@H]1C[C@@H](C(=O)N[C@@H]([C@H]2O[C@H](SC)[C@H](O)[C@@H](O)[C@H]2O)[C@@H](C)O)N(C)C1` [Lincomycin], in the test on MNH 46686 strain, the “Note” value was “Resistant” and the “Diameter of inhibition zone” value is given as 0.00 mm. The “Note” value in the test on MNH 46686 strain (listed as lincomycin) was “resistant”.

Take `COc1cc2cc(C(=O)CCC(=O)O)sc2cc1OC` [MSA-2]: the “response of the IFNβ reporter system to the positive drug” value in the test on IFNβ is recorded as “good response”.

With `CN(C)[C@@H]1C(O)=C(C(N)=O)C(=O)[C@@]2(O)C(O)=C3C(=O)c4c(O)cccc4[C@@](C)(O)[C@H]3C[C@@H]12` [Tetracycline], the “Diameter of inhibition zone” value with MNH 46686 strain came to 12.01 mm.

With Gentamicin, the “Note” value with MNH 46686 strain was “Sensitive”; with MNH 46686 strain (listed as gentamicin), “sensitive”. Also, in the test on MNH 46686 strain, the “Diameter of inhibition zone” value is recorded as 10.90 mm.

Regarding Penicillin, the “Note” value in the test with MNH 46686 strain is “Sensitive”; in the test on MNH 46686 strain (listed as penicillin) it was “sensitive”. Also, the “Diameter of inhibition zone” value in the test with MNH 46686 strain was 19.69 mm.

As for Trimethoprim-sulfamethoxazole, in the test with MNH 46686 strain, the “Note” value is reported as “Resistant” and the “Diameter of inhibition zone” value was found to be 0.00 mm. Also, the “Note” value with MNH 46686 strain (listed as trimethoprim-sulfamethoxazole) is “resistant”.
